Each structure is given as a SMILES string.

For assay [1], the target named is T1, menin/MLL (terbium chelate-labeled menin, FITC-MBM1 peptide) (Homo sapiens, UniProt O00255, T541A).
T1 construct: Menin (a.a 1-610-6xhis tag, 2.3 mg/mL in 20 mM Hepes)
T1 sequence (O00255 with tags, fused parts or gaps T541A): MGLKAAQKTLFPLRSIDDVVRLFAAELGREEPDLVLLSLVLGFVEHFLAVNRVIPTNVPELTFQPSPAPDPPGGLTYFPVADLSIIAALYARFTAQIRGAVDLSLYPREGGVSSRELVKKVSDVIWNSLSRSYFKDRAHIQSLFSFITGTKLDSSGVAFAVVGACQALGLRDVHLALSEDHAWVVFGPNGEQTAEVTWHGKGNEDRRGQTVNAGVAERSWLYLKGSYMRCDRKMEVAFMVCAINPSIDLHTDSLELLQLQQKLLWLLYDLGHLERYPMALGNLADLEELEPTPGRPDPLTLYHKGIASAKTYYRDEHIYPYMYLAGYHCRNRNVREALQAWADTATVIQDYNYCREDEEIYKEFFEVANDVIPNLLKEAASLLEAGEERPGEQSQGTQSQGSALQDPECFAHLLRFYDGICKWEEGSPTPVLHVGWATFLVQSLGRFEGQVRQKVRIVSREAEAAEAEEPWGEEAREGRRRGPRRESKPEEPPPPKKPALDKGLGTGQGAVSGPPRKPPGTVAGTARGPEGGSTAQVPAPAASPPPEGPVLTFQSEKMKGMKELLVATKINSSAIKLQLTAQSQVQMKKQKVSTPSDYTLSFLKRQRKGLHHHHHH
Briefly: Menin/MLL homogenous time-resolved fluorescence (HTRF) assay. The format is binding. The settings on record: 30 min incubation. The protocol: 1) Menin/MLL Homogenous Time-Resolved Fluorescence (HTRF) Assay
To an untreated, white 384-well microtiter plate was added 40 nL 200× test compound in DMSO and 4 μL 2× terbium chelate-labeled menin (vide infra for preparation) in assay buffer (40 mM Tris HCl, pH 7.5, 50 mM NaCl. 1 mM DTT (dithiothreitol) and 0.05% Pluronic F-127). After incubation of test compound and terbium chelate-labeled menin for 30 min at ambient temperature, 4 μL 2×FITC-MBM1 peptide (FITC-β-alanine-[…]-NH2) (“FITC” means fluorescein isothiocyanate) in assay buffer was added, the microtiter plate centrifuged at 1000 rpm for 1 min and the assay mixtures incubated for 15 min at ambient temperature. The relative amount of menin FITC-MBM1 complex present in an assay mixture is determined by measuring the homogenous time-resolved fluorescence (HTRF) of the terbium/FITC donor/acceptor fluorphore pair using an EnVision microplate reader (ex. 337 nm/terbium em. 490 nm/FITC em. 520 nm) at ambient temperature. The degree of fluorescence resonance energy transfer (the HTRF value) is expressed as the ratio of the fluorescence emission intensities of the FITC and terbium fluorophores (F^em520 nm/F^em490 nm). The final concentrations of reagents in the binding assay are […] terbium chelate-labeled menin, 75 nM FITC-MBM1 peptide and 0.5% DMSO in assay buffer. Dose-response titrations of test compounds are conducted using an 11 point, four-fold serial dilution scheme, starting typically at 10 μM.
Compound potencies were determined by first calculating % inhibition at each compound concentration according to equation 1:
% inhibition=((HC−LC)−(HTRF^compound−LC))/(HC−LC))*100 (Eqn 1)
Where LC and HC are the HTRF values of the assay in the presence or absence of a saturating concentration of a compound that competes with FITC-MBM1 for binding to menin, and HTRF^compound is the measured HTRF value in the presence of the test compound. HC and LC HTRF values represent an average of at least 10 replicates per plate.
% inhibition=Bottom+(Top−Bottom)/(1+10^((log/C50−log[cmpd])*h)) (Eqn 2)
Where Bottom and Top are the lower and upper asymptotes of the dose-response curve, respectively, IC50 is the concentration of compound that yields 50% inhibition of signal and h is the Hill coefficient.
Preparation of Terbium cryptate labeling of Menin: Menin (a.a 1-610-6xhis tag, 2.3 mg/mL in 20 mM Hepes (2-[4-(2-Hydroxyethyl)-1-piperazinyl]ethane sulfonic acid), 80 mM NaCl, 5 mM DTT (Dithiothreitol), pH 7.5) was labeled with terbium cryptate as follows. 200 μg of Menin was buffer exchanged into 1×Hepes buffer. 6.67 μM Menin was incubated with 8-fold molar excess NHS (N-hydroxysuccinimide)-terbium cryptate for 40 minutes at room temperature. Half of the labeled protein was purified away from free label by running the reaction over a NAP5 column with elution buffer (0.1M Hepes, pH 7+0.1% BSA (bovine serum albumin)). The other half was eluted with 0.1 M phosphate buffered saline (PBS), pH7. 400 μl of eluent was collected for each, aliquoted and frozen at −80° C. The final concentration of terbium-labeled Menin protein was 115 μg/mL in Hepes buffer and 85 μg/mL in PBS buffer, respectively.

For another assay, the system named is MEIS1 mRNA expression. Briefly: MEIS1 mRNA expression assay (Quantigene Singleplex) in MOLM14 cells. Format: cell-based, human. The settings on record: 48 hours incubation. The protocol: 2b) MEIS1 mRNA Expression Assay
MEIS1 mRNA expression upon treatment of compound was examined by Quantigene Singleplex assay (Thermo Fisher Scientific). This technology allows for direct quantification of mRNA targets using probes hybridizing to defined target sequences of interest and the signal is detected using a Multimode plate reader Envision (PerkinElmer). The MOLM14 cell line was used for this experiment. Cells were plated in 96-well plates at 3,750 cells/well in the presence of increasing concentrations of compounds. After incubation of 48 hours with compounds, cells were lysed in lysis buffer and incubated for 45 minutes at 55° C. Cell lysates were mixed with human MEIS specific capture probe or human RPL28 (Ribosomal Protein L28) specific probe as a normalization control, as well as blocking probes. Cell lysates were then transferred to the custom assay hybridization plate (Thermo Fisher Scientific) and incubated for 18 to 22 hours at 55° C. Subsequently, plates were washed to remove unbound materials followed by sequential addition of preamplifiers, amplifiers, and label probe. Signals (═gene counts) were measured with a Multimode plate reader Envision. IC50S were calculated by dose-response modelling using appropriate software. For all non-housekeeper genes response equal counts corrected for background and relative expression. For each sample, each test gene signal (background subtracted) was divided by the normalization gene signal (RPL28: background subtracted). Fold changes were calculated by dividing the normalized values for the treated samples by the normalized values for the DMSO treated sample. Fold changes of each target gene were used for the calculation of IC50S.

For `CCC(CCCN1C[C@H]2CN(C(C)=O)C[C@@H]2C1)N1CC[C@H](Cc2cn(-c3ccc(F)cc3C(=O)N(C)C(C)C)c3cncc(C)c23)C1` (mixture of isomers) [Compound 17], the IC50 (in general, the point on the concentration scale where inhibition reaches its midpoint) stood at 0.031 nM in assay [1] and 48 nM in the assay on MEIS1 mRNA expression (Homo sapiens, MOLM-14, 48 h).
The corresponding values for `Cc1cncc2c1c(C[C@@H]1CCN([C@@H](C)C3CCOCC3)C1)cn2-c1ccc(F)cc1[S@](=N)(=O)C(C)C` (single isomer, unassigned) [Compound 180b] are 7.29 nM and roughly 2810 nM.
For the molecule `Cc1cncc2c1c(C[C@@H]1CCN(CC3CCOCC3)C1)cn2-c1ccc(F)cc1C(=O)N1CCC(O)C1C` (stereo in doubt) [Compound 358], the concentration for half-maximal inhibition (IC50) worked out at 0.223 nM in assay [1] and 386 nM with MEIS1 mRNA expression (Homo sapiens, MOLM-14, 48 h).
The corresponding values for `Cc1cncc2c1c(CC1CN(CC3(C)COC3)C1)cn2-c1ccc(F)cc1C(=O)N(C)C(C)C` [Compound 286] are 0.046 nM and 59 nM.
For `CC(=O)N1CC[C@H](CN2CCC(Cc3cn(-c4ccc(F)cc4C(=O)N(C)C(C)C)c4cncc(C)c34)CC2)C1` [Compound 113], in that order: 0.642 nM and roughly 493 nM.
In the case of `Cc1cncc2c1c(C[C@@H]1CCN(CC3CCN(C(=O)N(C)C)CC3)C1)cn2-c1ccc(F)cc1C(=O)N(C)C(C)C` [Compound 149], the IC50 was 0.037 nM in assay [1] and 23 nM in the assay with MEIS1 mRNA expression (Homo sapiens, MOLM-14, 48 h).
For `Cc1cncc2c1c(CC1CN(CC(=O)N3CC4CC4C3)C1)cn2-c1ccc(F)cc1C(=O)N(C)C(C)C` (stereo not shown) [Compound 97], in that order: 1.97 nM and 1610 nM.
The corresponding values for `Cc1cncc2c1c(CC1CN(CC3CCOCC3)C1)cn2-c1ccc(F)cc1C(=O)N(C)C1(CO)CCC1` [Compound 276] are 0.532 nM and roughly 462 nM.
The corresponding values for `CC(=O)N1CCC(CN2CC[C@H](Cc3cn(-c4ccc(F)cc4S4(=O)=NCCC4)c4cncc(C)c34)C2)CC1` (mixture of isomers) [Compound 224] are 8.66 nM and roughly 3880 nM.
For the molecule `CC(=O)N1CCC(CN2CCC(Cc3cn(-c4ccc(F)cc4C(=O)N(C)C(C)C)c4cncc(C)c34)C2C)CC1` (stereo not shown) [Compound 227], the half-inhibitory concentration (IC50) was determined as 0.655 nM in assay [1] and 551 nM with MEIS1 mRNA expression.
Turning to `CCC([C@H]1C[C@@H](N2CCN(C(C)=O)CC2)C1)N1CC[C@H](Cc2cn(-c3ccc(F)cc3C(=O)N(C)C(C)C)c3cncc(C)c23)C1` (mixture of isomers) [Compound 25], the IC50 is 0.087 nM in assay [1] and 91 nM in the assay with MEIS1 mRNA expression (Homo sapiens, MOLM-14, 48 h).
For `CC(=O)N1CCC([C@@H](C)N2CC[C@H](Cc3cn(-c4ccc(F)cc4[S@](=N)(=O)C(C)C)c4cncc(C)c34)C2)CC1` (single isomer, unassigned) [Compound 232a], in that order: 0.624 nM and roughly 448 nM.
For the molecule `CCC(CCCN1C[C@H]2CN(C(C)=O)C[C@@H]2C1)N1CC[C@@H](Cc2cn(-c3ccc(F)cc3C(=O)N(C)C(C)C)c3cncc(C)c23)C1` (mixture of isomers) [Compound 16], the IC50 in assay [1] came out at 0.051 nM; in the assay on MEIS1 mRNA expression (Homo sapiens, MOLM-14, 48 h), 70 nM.
Consider `CC(=O)N1CCC2(CCCC(N3CC(Cc4cn(-c5ccc(F)cc5C(=O)N(C)C(C)C)c5cncc(C)c45)C3)C2)C1` (stereo not shown) [Compound 303], for which the IC50 in assay [1] was 0.179 nM; in the assay on MEIS1 mRNA expression (Homo sapiens, MOLM-14, 48 h) it was roughly 77 nM.
For `Cc1cncc2c1c(CC1CN(C[C@H]3CC[C@@H](C(=O)N(C)C)CC3)C1)cn2-c1ccc(F)cc1C(=O)N(C)C(C)C` [Compound 221], in that order: 0.311 nM and 109 nM.
For `Cc1cncc2c1c(CC1CN(CC3CCN(C(=O)C4(O)CC4)CC3)C1)cn2-c1ccc(F)cc1C(=O)N(C)C(C)C` [Compound 251], the half-maximal inhibitory concentration (IC50) in assay [1] came out at 0.066 nM; in the assay with MEIS1 mRNA expression (Homo sapiens, MOLM-14, 48 h) it was 83 nM.
For `Cc1cncc2c1c(CC1CCN(CC3CCN(C(=O)CO)CC3)C1)cn2-c1ccc(F)cc1C(=O)N(C)C(C)C` (single isomer, unassigned) [Compound 87], in that order: 0.042 nM and 27 nM.

The values are drawn from US20230250096A1, “SUBSTITUTED PHENYL-1H-PYRROLO[2,3-c] PYRIDINE DERIVATIVES” (Janssen Pharmaceutica NV, priority 2021, published 2023).
